From article PMC2263054, “Functional evolution of the vitamin D and pregnane X receptors” (BMC Evolutionary Biology, 2007)
Where two headings read alike, the source gives them in different places.

What was measured:
Format in all cases: cell-based
Zebrafish VDR = biological target: T1, Zebrafish VDR (Danio rerio, UniProt Q9PTN2); assay: luciferase reporter transactivation assay in HepG2-NTCP cells, GAL4/zfVDR LBD chimera with tk-UAS-Luc; conditions: screening for activators, at least three concentrations of each drug
T1 sequence (Q9PTN2 121-453): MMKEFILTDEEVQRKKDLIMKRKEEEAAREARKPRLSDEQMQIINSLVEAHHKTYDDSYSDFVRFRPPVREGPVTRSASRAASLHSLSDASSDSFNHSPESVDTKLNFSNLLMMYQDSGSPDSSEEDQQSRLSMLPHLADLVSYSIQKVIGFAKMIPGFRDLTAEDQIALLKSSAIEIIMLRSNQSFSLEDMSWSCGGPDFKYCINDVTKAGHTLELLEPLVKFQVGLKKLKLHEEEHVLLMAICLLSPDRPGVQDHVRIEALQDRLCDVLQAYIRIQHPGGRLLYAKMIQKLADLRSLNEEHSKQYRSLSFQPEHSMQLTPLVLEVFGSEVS

Xenopus laevis VDR = biological target: T2, Xenopus laevis VDR (Xenopus laevis, UniProt O13124); assay: luciferase reporter transactivation assay in HepG2-NTCP cells, GAL4/xlVDR LBD chimera with tk-UAS-Luc; conditions: screening for activators, at least three concentrations of each drug
T2 sequence (O13124 90-422): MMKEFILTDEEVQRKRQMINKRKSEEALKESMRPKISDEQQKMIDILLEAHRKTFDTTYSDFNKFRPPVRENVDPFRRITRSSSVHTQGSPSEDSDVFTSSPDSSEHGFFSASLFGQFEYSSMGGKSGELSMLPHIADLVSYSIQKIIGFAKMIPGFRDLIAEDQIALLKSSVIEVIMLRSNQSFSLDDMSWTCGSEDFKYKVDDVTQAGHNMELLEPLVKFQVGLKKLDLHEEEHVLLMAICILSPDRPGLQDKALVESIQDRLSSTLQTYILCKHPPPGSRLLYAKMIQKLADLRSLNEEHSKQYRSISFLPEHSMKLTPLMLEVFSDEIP

Sea lamprey VDR = biological target: T3, Sea lamprey VDR (Petromyzon marinus, UniProt Q7ZZY9)
T3 sequence (Q7ZZY9 92-406): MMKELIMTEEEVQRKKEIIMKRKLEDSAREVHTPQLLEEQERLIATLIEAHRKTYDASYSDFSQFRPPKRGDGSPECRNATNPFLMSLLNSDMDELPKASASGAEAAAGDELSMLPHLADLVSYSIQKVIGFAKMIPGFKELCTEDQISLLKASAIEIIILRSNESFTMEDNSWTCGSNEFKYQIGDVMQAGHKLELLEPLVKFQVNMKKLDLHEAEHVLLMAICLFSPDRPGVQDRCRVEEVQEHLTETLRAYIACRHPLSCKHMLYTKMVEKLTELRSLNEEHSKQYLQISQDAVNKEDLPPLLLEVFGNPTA

[1] = screening for activators, at least three concentrations of each drug

CC1=C(/C=C/C(C)=C\C=C\C(C)=C\C(=O)O)C(C)(C)CCC1 [9-cis Retinoic acid]
No effect: Effect on zebrafish VDR (Zebrafish VDR) | Effect on Xenopus laevis VDR (Xenopus laevis VDR) | Effect on sea lamprey VDR (Sea lamprey VDR; [1])

C[C@]12CC[C@@H](O)C[C@H]1CC[C@@H]1[C@@H]2C(=O)C[C@@]2(C)[C@H]1CC[C@]2(O)C(=O)CO [Tetrahydrocortisone]
No effect: Effect on zebrafish VDR (Zebrafish VDR) | Effect on Xenopus laevis VDR (Xenopus laevis VDR) | Effect on sea lamprey VDR (Sea lamprey VDR; [1])

C[C@H](CCCO)[C@H]1CC[C@H]2[C@@H]3[C@H](O)C[C@@H]4C[C@H](O)CC[C@]4(C)[C@H]3C[C@H](O)[C@]12C [5b-Cholan-3a,7a,12a,24-tetrol]
No effect: Effect on zebrafish VDR (Zebrafish VDR) | Effect on Xenopus laevis VDR (Xenopus laevis VDR) | Effect on sea lamprey VDR (Sea lamprey VDR; [1])

CC(=O)[C@H]1CC[C@H]2[C@@H]3CC[C@@H]4CC(=O)CC[C@]4(C)[C@H]3CC[C@]12C [5b-Pregnan-3,20-dione]
No effect: Effect on zebrafish VDR (Zebrafish VDR) | Effect on Xenopus laevis VDR (Xenopus laevis VDR) | Effect on sea lamprey VDR (Sea lamprey VDR; [1])

COc1c(C)c2c(c(O)c1C/C=C(\C)CCC(=O)O)C(=O)OC2 [Mycophenolic acid]
No effect: Effect on zebrafish VDR (Zebrafish VDR) | Effect on Xenopus laevis VDR (Xenopus laevis VDR) | Effect on sea lamprey VDR (Sea lamprey VDR; [1])

CC1=CC(=O)c2ccccc2C1=O [Vitamin K3]
No effect: Effect on zebrafish VDR (Zebrafish VDR) | Effect on Xenopus laevis VDR (Xenopus laevis VDR) | Effect on sea lamprey VDR (Sea lamprey VDR; [1])

C/C(=C\c1ccc(C(=O)O)cc1)c1ccc2c(c1)C(C)(C)CCC2(C)C [TTNPB]
No effect: Effect on zebrafish VDR (Zebrafish VDR) | Effect on Xenopus laevis VDR (Xenopus laevis VDR) | Effect on sea lamprey VDR (Sea lamprey VDR; [1])

CC(=O)[C@H]1CC[C@H]2[C@@H]3CCC4=CC(=O)CC[C@]4(C)[C@H]3CC[C@]12C [Progesterone]
No effect: Effect on zebrafish VDR (Zebrafish VDR) | Effect on Xenopus laevis VDR (Xenopus laevis VDR) | Effect on sea lamprey VDR (Sea lamprey VDR; [1])

C[C@H](CCC(=O)NCC(=O)O)[C@H]1CC[C@H]2[C@@H]3[C@H](O)C[C@@H]4C[C@H](O)CC[C@]4(C)[C@H]3C[C@H](O)[C@]12C.O [Glycocholic acid hydrate]
No effect: Effect on zebrafish VDR (Zebrafish VDR) | Effect on Xenopus laevis VDR (Xenopus laevis VDR) | Effect on sea lamprey VDR (Sea lamprey VDR; [1])

C[C@H](CCC(=O)O)[C@H]1CC[C@H]2[C@@H]3CC[C@@H]4C[C@H](O)CC[C@]4(C)[C@H]3C[C@H](O)[C@]12C [Deoxycholic acid]
No effect: Effect on zebrafish VDR (Zebrafish VDR) | Effect on Xenopus laevis VDR (Xenopus laevis VDR) | Effect on sea lamprey VDR (Sea lamprey VDR; [1])

C[C@H](CCC(=O)O)[C@H]1CC[C@H]2[C@@H]3[C@@H](O)[C@@H](O)[C@@H]4C[C@H](O)CC[C@]4(C)[C@H]3CC[C@]12C [b-Muricholic acid]
No effect: Effect on zebrafish VDR (Zebrafish VDR) | Effect on Xenopus laevis VDR (Xenopus laevis VDR) | Effect on sea lamprey VDR (Sea lamprey VDR; [1])

Cc1cc(O)c(C)c2c1O[C@](C)(CCC[C@H](C)CCC[C@H](C)CCCC(C)C)CC2 [Beta-tocopherol]
No effect: Effect on zebrafish VDR (Zebrafish VDR) | Effect on Xenopus laevis VDR (Xenopus laevis VDR) | Effect on sea lamprey VDR (Sea lamprey VDR; [1])

Cc1c(C)c2c(c(C)c1O)CC[C@@](C)(CCC[C@H](C)CCC[C@H](C)CCCC(C)C)O2 [Alpha-tocopherol]
No effect: Effect on zebrafish VDR (Zebrafish VDR) | Effect on Xenopus laevis VDR (Xenopus laevis VDR) | Effect on sea lamprey VDR (Sea lamprey VDR; [1])

CCCCC/C=C/C=C1/C(=O)C=C[C@@H]1C/C=C\CCCC(=O)O [15-Deoxy-D12,14-prostaglandin J2]
No effect: Effect on zebrafish VDR (Zebrafish VDR) | Effect on Xenopus laevis VDR (Xenopus laevis VDR) | Effect on sea lamprey VDR (Sea lamprey VDR; [1])

C[C@]12CC[C@@H](O)C[C@H]1CC[C@@H]1[C@@H]2[C@@H](O)C[C@@]2(C)[C@H]1CC[C@]2(O)[C@@H](O)CO [Cortol]
No effect: Effect on zebrafish VDR (Zebrafish VDR) | Effect on Xenopus laevis VDR (Xenopus laevis VDR) | Effect on sea lamprey VDR (Sea lamprey VDR; [1])

C[C@H](CCC(=O)O)[C@H]1CC[C@H]2[C@@H]3C(=O)C[C@@H]4C[C@H](O)CC[C@]4(C)[C@H]3CC(=O)[C@]12C [7,12-Diketolithocholic acid]
No effect: Effect on zebrafish VDR (Zebrafish VDR) | Effect on Xenopus laevis VDR (Xenopus laevis VDR) | Effect on sea lamprey VDR (Sea lamprey VDR; [1])

C[C@H](CCC(=O)O)[C@H]1CC[C@H]2[C@@H]3C(=O)C[C@@H]4C[C@H](O)CC[C@]4(C)[C@H]3C[C@H](O)[C@]12C [7-Ketodeoxycholic acid]
No effect: Effect on zebrafish VDR (Zebrafish VDR) | Effect on Xenopus laevis VDR (Xenopus laevis VDR) | Effect on sea lamprey VDR (Sea lamprey VDR; [1])

CCCCCC=CCC=CCC=CCC=CCCCC(=O)O [5,8,11,14-Eicosatetranoic acid]
No effect: Effect on zebrafish VDR (Zebrafish VDR) | Effect on Xenopus laevis VDR (Xenopus laevis VDR) | Effect on sea lamprey VDR (Sea lamprey VDR; [1])

CC(CCC(=O)NCC(=O)O)C1CCC2C3C(O)CC4CC(O)CCC4(C)C3CCC12C (stereo not drawn) [Glycochenodeoxycholic acid]
No effect: Effect on zebrafish VDR (Zebrafish VDR) | Effect on Xenopus laevis VDR (Xenopus laevis VDR) | Effect on sea lamprey VDR (Sea lamprey VDR; [1])

CC(CO)CCC[C@@H](C)[C@H]1[C@H](O)C[C@H]2[C@@H]3[C@H](O)C[C@H]4C[C@H](O)CC[C@]4(C)[C@H]3CC[C@]12C (stereo partly drawn) [5a-Cholestan-3a,7a,16a,27-tetrol]
No effect: Effect on zebrafish VDR (Zebrafish VDR) | Effect on Xenopus laevis VDR (Xenopus laevis VDR) | Effect on sea lamprey VDR (Sea lamprey VDR; [1])

C[C@H](CCC(=O)O)[C@H]1CC[C@H]2[C@@H]3C(=O)C[C@@H]4C[C@H](O)CC[C@]4(C)[C@H]3CC[C@]12C [7-Ketolithocholic acid]
No effect: Effect on zebrafish VDR (Zebrafish VDR) | Effect on Xenopus laevis VDR (Xenopus laevis VDR) | Effect on sea lamprey VDR (Sea lamprey VDR; [1])

C[C@]12CC[C@@H](O)C[C@H]1CC[C@@H]1[C@@H]2[C@@H](O)C[C@]2(C)C(=O)CC[C@@H]12 [5b-Androstan-3a,11b-17-one]
No effect: Effect on zebrafish VDR (Zebrafish VDR) | Effect on Xenopus laevis VDR (Xenopus laevis VDR) | Effect on sea lamprey VDR (Sea lamprey VDR; [1])

C[C@]12CCC(=O)C[C@@H]1CC[C@@H]1[C@@H]2CC[C@]2(C)[C@@H](O)CC[C@@H]12 [Dihydrotestosterone]
No effect: Effect on zebrafish VDR (Zebrafish VDR) | Effect on Xenopus laevis VDR (Xenopus laevis VDR) | Effect on sea lamprey VDR (Sea lamprey VDR; [1])

CC(O)C1CCC2C3CCC4CC(O)CCC4(C)C3CCC12C (stereo not drawn) [5a-pregnan-3a,20a-diol]
No effect: Effect on zebrafish VDR (Zebrafish VDR) | Effect on Xenopus laevis VDR (Xenopus laevis VDR) | Effect on sea lamprey VDR (Sea lamprey VDR; [1])

O=C(Nc1ccccc1)c1cc([N+](=O)[O-])ccc1Cl [GW 9662]
No effect: Effect on zebrafish VDR (Zebrafish VDR) | Effect on Xenopus laevis VDR (Xenopus laevis VDR) | Effect on sea lamprey VDR (Sea lamprey VDR; [1])

C[C@H](CCC(=O)O)[C@H]1CC[C@H]2[C@@H]3[C@H](O)C[C@@H]4C[C@H](O)CC[C@]4(C)[C@H]3CC[C@]12C [Chenodeoxycholic acid]
No effect: Effect on zebrafish VDR (Zebrafish VDR) | Effect on Xenopus laevis VDR (Xenopus laevis VDR) | Effect on sea lamprey VDR (Sea lamprey VDR)

CCCCCCCC/C=C\CCCCCCCC(=O)NCCO [N-Oleoylethanolamide]
No effect: Effect on zebrafish VDR (Zebrafish VDR) | Effect on Xenopus laevis VDR (Xenopus laevis VDR) | Effect on sea lamprey VDR (Sea lamprey VDR; [1])

C[C@H](O)[C@H]1CC[C@H]2[C@@H]3CC[C@@H]4C[C@H](O[C@@H]5O[C@H](C(=O)O)[C@@H](O)[C@H](O)[C@H]5O)CC[C@]4(C)[C@H]3CC[C@]12C [Pregnanediol glucuronide]
No effect: Effect on zebrafish VDR (Zebrafish VDR) | Effect on Xenopus laevis VDR (Xenopus laevis VDR) | Effect on sea lamprey VDR (Sea lamprey VDR; [1])
